This test concerns MEF A1-2A-BIM cells, caspase 3/7 luminescence, 3 h. Description: inducers of caspase signal in A1-dependent MEFs – cell-based, luminescence, retest, A1 inhibitor project, dose response (AID 2765).

Activity calls are given as the source filed them.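 The calls were made as follows: active = half-maximal concentration for the rise in caspase light signal at or below ten times the top tested dose; inconclusive = flat fit between 30% and 70% activity, or unreliable curve fit; inactive = the rest.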 Some results are limits rather than exact numbers.

For `COc1cc(/C=C/[N+](=O)[O-])ccc1OC(=O)c1cccnc1`, the EC50 (as a rule, the concentration needed to bring the measured effect to its halfway point) was 12.5 µM.

Turning to `CC(C)c1ccc(NC(=S)NNC(=O)c2cccs2)cc1`, the EC50 was > 35 µM (inactive).

As for `O=C(Cn1c(=O)c2cccn2c2cccnc21)N1CCN(c2ccc(Cl)cc2)CC1`, the EC50 is > 35 µM (inactive).

Consider `Cc1ccc2nc(N(CCCN(C)C)C(=O)c3ccc(S(=O)(=O)N4CCc5ccccc5C4)cc3)sc2c1`, for which the EC50 was > 35 µM (inactive).

Regarding `CCC(=O)N/C(N)=N/c1nc(C)c2cc(C)c(C)cc2n1`, the EC50 is > 35 µM (inactive).

`CCCCc1ccc(NC(=O)CN(C)CC(=O)Nc2ccccc2Cl)cc1`: the EC50 was > 35 µM (inactive).

On to `Cc1ccc(NC(=O)Cn2ncc(Cl)c(Cl)c2=O)cc1S(=O)(=O)N1CCCCC1`, for which the EC50 was > 35 µM (inactive).

As for `O=C(CC1CC2CCC1C2)N1CCN(S(=O)(=O)c2ccccc2C(F)(F)F)CC1` (configuration not stated), the EC50 is > 35 µM (inactive).

As to `CC(Oc1ccc(-c2nccc(-c3ccccn3)n2)cc1)C(=O)NN` (configuration not stated), the EC50 is > 35 µM (inactive).

With `COc1ccc(NC(=O)c2oc3ccccc3c2NC(=O)C2CC2)cc1`, the EC50 was > 35 µM (inactive).

With `Cc1ccc(-n2nc3c(=O)n(C(C)C(=O)NCc4ccccc4Cl)nc(C)c3c2C)cc1` (configuration not stated), the EC50 was > 35 µM (inactive).

With `CC(=O)c1ccc(N(C(=O)c2csnn2)C(C(=O)NC(C)(C)C)c2cccs2)cc1` (configuration not stated), the EC50 is > 35 µM (inactive).

Regarding `Cc1ccc(NC(=O)CSc2nnc(C)n2-c2ccccc2)cc1`, the EC50 is > 35 µM (inactive).

For `Cc1cccc(NC(=S)N(Cc2cccc(Br)c2)CC2CCC(C(=O)O)CC2)c1` (configuration not stated), the EC50 is > 35 µM (inactive).

Turning to `CC(C)(C)C(=O)CNS(=O)(=O)c1ccc(S(=O)(=O)NC2CC2)cc1`, the EC50 was > 35 µM (inactive).

In the case of `Cc1ccc(CSc2ncnc3c2cnn3-c2ccccc2)cc1`, the EC50 was > 35 µM (inactive).

Take `COC(=O)c1ccc(CNC(=O)C2CCC(=O)N(CCc3ccccc3)C2)cc1` (configuration not stated): the EC50 is > 35 µM (inactive).

Turning to `COc1ccc2c(-c3cc4ccc(OCc5ccc(F)cc5)cc4oc3=O)cc(=O)oc2c1`, the EC50 was 30.1 µM.

`COC(=O)c1ccc2c(c1)C(C)(C)C(/C=C/c1ccc(O)cc1)=[N+]2C`: the EC50 was 15.2 µM.

As for `CCOC(=O)C1=C(c2ccccc2)O/C(=C(/C#N)C(F)(F)F)S1`, the EC50 was > 35 µM (inactive).

Regarding `CN(c1ccc(OCC(=O)NC2CCC(O)CC2)cc1)S(=O)(=O)c1ccc(Cl)cc1` (configuration not stated), the EC50 is > 35 µM (inactive).

For `CCOC(=O)CCCCCNC(=O)c1ccc(F)cc1F`, the EC50 is > 35 µM (inactive).

In the case of `Cc1cccc2c3c([nH]c12)CCN(C)C3`, the EC50 is > 35 µM (inactive).

In the case of `O=C(O)COc1ccccc1C=NNc1ccc([N+](=O)[O-])cc1S(=O)(=O)Nc1ccc(Cl)cc1`, the EC50 is > 35 µM (inactive).

For the compound `CC(Sc1nc(-c2ccccc2)cc(C(F)(F)F)n1)C(=O)N1CCCCC1` (configuration not stated), the EC50 was > 35 µM (inactive).

Consider `Cc1ccc(C(=O)Nc2ccc(N3CCOCC3)nc2N2CCOCC2)cc1`, for which the EC50 is > 35 µM (inactive).

On to `C#CCn1ccc(O)c(Cc2ccccc2)c1=O`, for which the EC50 was > 35 µM (inactive).

For the compound `NC(=O)c1ccc[n+](CC(=O)NCc2ccc(Cl)cc2)c1`, the EC50 is > 35 µM (inactive).

For the compound `COc1cc(/C=C/C(=O)c2ccc([N+](=O)[O-])o2)ccc1O`, the EC50 was > 35 µM (inactive).

In the case of `CCCCCCC(=O)Nc1cc2c(C)cc(=O)oc2cc1C`, the EC50 was > 35 µM (inactive).

Regarding `CCOC(=O)CNC(=O)N1CCCC(CNS(=O)(=O)Cc2ccccc2)C1` (configuration not stated), the EC50 was > 35 µM (inactive).

For the compound `CCOC(=O)c1cc(CC)sc1NC(=O)C1CC(=O)NN1Cc1ccccc1` (configuration not stated), the EC50 is > 35 µM (inactive).

Turning to `COC(=O)c1ccc(C(=O)OC)c(NC(=O)CSc2ccccn2)c1`, the EC50 was > 35 µM (inactive).

Turning to `COc1ccc(CNS(=O)(=O)c2ccccc2Br)cc1`, the EC50 is > 35 µM (inactive).

Consider `CC(C)N=c1scc(-c2ccco2)n1/N=C/c1ccc(O)c(O)c1`, for which the EC50 is > 35 µM (inactive).

Regarding `Cc1cc(Nc2ccc(Cl)cc2)n2ncnc2n1`, the EC50 was > 35 µM (inactive).

As to `CCOC(=O)c1c(C)nc2sc(C(=O)Nc3ccc(C(C)=O)cc3)c(N)c2c1-c1ccc(OC)cc1`, the EC50 is > 35 µM (inactive).

On to `CN(C(=O)CSc1ccncc1)C1CCCN(Cc2ccccc2F)C1` (configuration not stated), for which the EC50 is > 35 µM (inactive).

As to `O=S1(=O)C=C(Sc2nc3cc(Cl)ccc3o2)c2ccccc21`, the EC50 was > 35 µM (inactive).

In the case of `CC1CCc2c(sc3nc(C(C)(C)C)nc(N4CCN(C(=O)CCl)CC4)c23)C1` (configuration not stated), the EC50 is 15.4 µM.

For `O=S(=O)(Nc1nc2ccccc2nc1Cl)c1ccc(Br)cc1`, the EC50 was > 35 µM (inactive).

For the compound `CCc1ccccc1NC(=O)CN(C)C(=O)Cn1ncc(Cl)c(Cl)c1=O`, the EC50 is > 35 µM (inactive).

For the compound `O=C(Cn1ncc(Cl)c(Cl)c1=O)NCC1CCCCC1`, the EC50 was > 35 µM (inactive).

Regarding `N#CN=C1SCCS1`, the EC50 is > 35 µM (inactive).

As for `COc1cc2c3c([nH]c2cc1F)C(=O)NCC3`, the EC50 is > 35 µM (inactive).

Regarding `Cc1cc(C)n(S(=O)(=O)c2ccc(C)c(C)c2C)n1`, the EC50 is > 35 µM (inactive).

With `O=C(NCCO)C(=O)Nc1cc2c3c(c1)CCN3C(=O)CC2`, the EC50 is > 35 µM (inactive).

With `COc1cc(/C=C2/C(=N)N3C=CSC3=NC2=O)ccc1OCCCOc1cc(C)ccc1C`, the EC50 is 7.28 µM.

`O=C(NCCc1ccccc1)C(c1cccs1)N(C(=O)CCl)c1ccc(Cl)cc1` (configuration not stated): the EC50 was 7.95 µM.

For `CN(C)C(=O)[C@@H]1C[C@H]1[C@@H](NC(=O)OCc1ccccc1)c1ccccc1`, the EC50 was > 35 µM (inactive).

For `O=C(c1cccc(F)c1F)N1CCCC1`, the EC50 is > 35 µM (inactive).

Turning to `Cc1nc(NN)c2c3c(sc2n1)COC(C)(C)C3`, the EC50 is > 35 µM (inactive).

For `COc1ccc(N2CCN(C(=O)C3CCN(C(=O)c4ccc([N+](=O)[O-])cc4)CC3)CC2)cc1`, the EC50 is > 35 µM (inactive).

Turning to `CCN(C[C@H]1N[C@@](CC)(C(=O)OC)[C@H]2C(=O)N(Cc3ccccc3)C(=O)[C@@H]12)C(=O)c1ccc(F)cc1`, the EC50 is > 35 µM (inactive).

As to `O=C(c1ccccc1Br)N(Cc1ccccc1)c1ccccc1`, the EC50 was > 35 µM (inactive).

Turning to `CC(C)Oc1ccc(C(=O)OCC(=O)NC2CCCCCC2)cc1`, the EC50 was > 35 µM (inactive).

Turning to `COc1cc(CN2CCc3ccccc3C2)ccc1O`, the EC50 was > 35 µM (inactive).

`CCOC(=O)[C@H]1[C@H]2COc3cc(OC)ccc3[C@@H]2N2C(=O)c3ccc(C)cc3NC(=O)[C@@]12C`: the EC50 is > 35 µM (inactive).

As to `COc1ccccc1NC(=O)c1ccc(S(=O)(=O)N2CCCC2)cc1`, the EC50 was > 35 µM (inactive).

Consider `COc1cc2sc(-c3ccc(S(C)(=O)=O)cc3)c(C(=O)NCCCCO)c2cc1OC`, for which the EC50 was > 35 µM (inactive).

Take `O=C(Nc1ccccc1N1CCCC1)C1CCN(S(=O)(=O)c2ccc(F)cc2)CC1`: the EC50 was > 35 µM (inactive).

In the case of `CCCCCCCC/C=C\CCCCCCCC(=O)NCCc1ccc(O)c(O)c1`, the EC50 is 8.06 µM.

These data come from PubChem BioAssay AID2765 (Broad Institute, 2010).
